What was measured:
Experiment in all cases: cells
DMS-114 = type: functional, cell-based, Homo sapiens; conditions: Homo sapiens, DMS-114
IST-MES1 = type: functional, cell-based, Homo sapiens; conditions: Homo sapiens, IST-MES1;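 note: growth inhibition of IST-MES1 cells, measured with a cell viability assay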
Description: SANGER: Inhibition of human IST-MES1 cell growth in a cell viability assay.

L-428 = type: functional, cell-based, Homo sapiens; conditions: Homo sapiens, L-428
Description: SANGER: Inhibition of human L-428 cell growth in a cell viability assay.

EW-3 = type: functional, cell-based, Homo sapiens; conditions: Homo sapiens, EW-3;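 note: cell viability assay read-out, IC50 reflects inhibition of growth of the EW-3 cells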
Description: SANGER: Inhibition of human EW-3 cell growth in a cell viability assay.

NB6 = type: functional, cell-based, Homo sapiens; conditions: Homo sapiens, NB6
Description: SANGER: Inhibition of human NB6 cell growth in a cell viability assay.

KP-N-YS = type: functional, cell-based, Homo sapiens; conditions: Homo sapiens, KP-N-YS;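 note: cell viability assay measuring inhibition of cell line growth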
Description: SANGER: Inhibition of human KP-N-YS cell growth in a cell viability assay.

MZ2-MEL = type: functional, cell-based, Homo sapiens; conditions: Homo sapiens, MZ2-MEL;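 note: growth inhibition of MZ2-MEL cells read out with a cell viability assay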
Description: SANGER: Inhibition of human MZ2-MEL cell growth in a cell viability assay.

SK-NEP-1 = type: functional, cell-based, Homo sapiens; conditions: Homo sapiens, SK-NEP-1;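 note: growth inhibition of human SK-NEP-1 cells, read out by a cell viability assay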
Description: SANGER: Inhibition of human SK-NEP-1 cell growth in a cell viability assay.

HCC2218 = type: functional, cell-based, Homo sapiens; conditions: Homo sapiens, HCC2218;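 note: cell viability assay read-out, with IC50 given as the concentration that inhibits growth of the cell line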
Description: SANGER: Inhibition of human HCC2218 cell growth in a cell viability assay.

MC116 = type: functional, cell-based, Homo sapiens; conditions: Homo sapiens, MC116;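 note: growth inhibition of MC116 cells, read out with a cell viability assay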
Description: SANGER: Inhibition of human MC116 cell growth in a cell viability assay.

HCE-4 = type: functional, cell-based; conditions: Homo sapiens;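 note: cell viability assay measuring inhibition of growth in the human HCE-4 cell line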
Description: SANGER: Inhibition of human HCE-4 cell growth in a cell viability assay.

DOHH-2 = type: functional, cell-based, Homo sapiens; conditions: Homo sapiens, DOHH-2;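 note: growth inhibition of human DOHH-2 cells, read out with a cell viability assay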
Description: SANGER: Inhibition of human DOHH-2 cell growth in a cell viability assay.

NCI-H1155 = type: functional, cell-based, Homo sapiens; conditions: Homo sapiens, NCI-H1155;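 note: cell growth inhibition measured by a viability assay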
Description: SANGER: Inhibition of human NCI-H1155 cell growth in a cell viability assay.

EW-1 = type: functional, cell-based, Homo sapiens; conditions: Homo sapiens, EW-1;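 note: growth inhibition of the human EW-1 cell line, read out by a cell viability assay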
Description: SANGER: Inhibition of human EW-1 cell growth in a cell viability assay.

BB30-HNC = type: functional, cell-based, Homo sapiens; conditions: Homo sapiens, BB30-HNC;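 note: growth inhibition of the cultured cell line, read out by a cell viability assay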
Description: SANGER: Inhibition of human BB30-HNC cell growth in a cell viability assay.

NB69 = type: functional, cell-based, Homo sapiens; conditions: Homo sapiens, NB69;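 note: growth inhibition of NB69 cells, determined by a cell viability assay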
Description: SANGER: Inhibition of human NB69 cell growth in a cell viability assay.

SJSA-1 = type: functional, cell-based, Homo sapiens; conditions: Homo sapiens, SJSA-1;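 note: growth inhibition of human SJSA-1 cells, read out through a cell viability measurement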
Description: SANGER: Inhibition of human SJSA-1 cell growth in a cell viability assay.

GCIY = type: functional, cell-based, Homo sapiens; conditions: Homo sapiens, GCIY;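 note: growth inhibition of the human GCIY cell line, read out by a cell viability assay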
Description: SANGER: Inhibition of human GCIY cell growth in a cell viability assay.

HDLM-2 = type: functional, cell-based, Homo sapiens; conditions: Homo sapiens, HDLM-2;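 note: cell viability assay measuring suppression of HDLM-2 proliferation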
Description: SANGER: Inhibition of human HDLM-2 cell growth in a cell viability assay.

TE-10 = type: functional, cell-based, Homo sapiens; conditions: Homo sapiens, TE-10;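 note: growth inhibition of TE-10 cells, measured by a cell viability assay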
Description: SANGER: Inhibition of human TE-10 cell growth in a cell viability assay.

A388 = type: functional, cell-based; conditions: Homo sapiens;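 note: growth inhibition of human A388 cells, read out with a cell viability assay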
Description: SANGER: Inhibition of human A388 cell growth in a cell viability assay.

UACC-257 = type: functional, cell-based, Homo sapiens; conditions: Homo sapiens, UACC-257
Description: SANGER: Inhibition of human UACC-257 cell growth in a cell viability assay.

NCI-H1355 = type: functional, cell-based, Homo sapiens; conditions: Homo sapiens, NCI-H1355;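 note: growth inhibition of human NCI-H1355 cells, read out by a cell viability assay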
Description: SANGER: Inhibition of human NCI-H1355 cell growth in a cell viability assay.

SK-N-FI = type: functional, cell-based, Homo sapiens; conditions: Homo sapiens, SK-N-FI;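 note: cell viability assay measuring growth inhibition of human SK-N-FI cells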
Description: SANGER: Inhibition of human SK-N-FI cell growth in a cell viability assay.

U-87 MG = type: functional, cell-based, Homo sapiens, U-87MG ATCC; conditions: Homo sapiens, U-87 MG;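 note: growth inhibition of the cells measured with a viability assay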
Description: SANGER: Inhibition of human U-87-MG cell growth in a cell viability assay.

K5 = type: functional, cell-based, Homo sapiens; conditions: Homo sapiens, K5
Description: SANGER: Inhibition of human K5 cell growth in a cell viability assay.

SW 954 = type: functional, cell-based, Homo sapiens; conditions: Homo sapiens, SW 954;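 note: growth inhibition of SW954 human cancer cells, read out as cell viability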
Description: SANGER: Inhibition of human SW954 cell growth in a cell viability assay.

DU-4475 = type: functional, cell-based, Homo sapiens; conditions: Homo sapiens, DU-4475
Description: SANGER: Inhibition of human DU-4475 cell growth in a cell viability assay.

SW982 = type: functional, cell-based; conditions: Homo sapiens;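 note: growth inhibition of SW982 cells, read out with a cell viability assay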
Description: SANGER: Inhibition of human SW982 cell growth in a cell viability assay.

JAR = type: functional, cell-based, Homo sapiens; conditions: Homo sapiens, JAR;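 note: growth inhibition of human JAR cells determined with a cell viability assay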
Description: SANGER: Inhibition of human JAR cell growth in a cell viability assay.

NCI-H82 = type: functional, cell-based, Homo sapiens; conditions: Homo sapiens, NCI-H82;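 note: growth inhibition of NCI-H82 cells, measured with a cell viability readout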
Description: SANGER: Inhibition of human NCI-H82 cell growth in a cell viability assay.

NEC8 = type: functional, cell-based, Homo sapiens; conditions: Homo sapiens, NEC8;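 note: growth inhibition of human NEC8 cells, read out by a cell viability assay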
Description: SANGER: Inhibition of human NEC8 cell growth in a cell viability assay.

A498 = type: functional, cell-based, Homo sapiens; conditions: Homo sapiens, A498;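 note: growth inhibition of human A498 cells, read out with a cell viability assay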
Description: SANGER: Inhibition of human A498 cell growth in a cell viability assay.

BE-13 = type: functional, cell-based, Homo sapiens; conditions: Homo sapiens, BE-13;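 note: growth inhibition of human BE-13 cells, measured with a cell viability assay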
Description: SANGER: Inhibition of human BE-13 cell growth in a cell viability assay.

SNU-C2B = type: functional, cell-based; conditions: Homo sapiens;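 note: cell viability readout used to measure compound-driven suppression of SNU-C2B cell proliferation, IC50 marking half-maximal growth inhibition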
Description: SANGER: Inhibition of human SNU-C2B cell growth in a cell viability assay.

BB65-RCC = type: functional, cell-based, Homo sapiens; conditions: Homo sapiens, BB65-RCC;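 note: growth inhibition of the cell line, measured with a cell viability assay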
Description: SANGER: Inhibition of human BB65-RCC cell growth in a cell viability assay.

MV4-11 = type: functional, cell-based, Homo sapiens, MV-4-11; conditions: Homo sapiens, MV4-11;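 note: cell viability readout measuring growth inhibition of human MV-4-11 cells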
Description: SANGER: Inhibition of human MV-4-11 cell growth in a cell viability assay.

TGBC24TKB = type: functional, cell-based; conditions: Homo sapiens;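 note: growth inhibition of human TGBC24TKB cells, read out with a cell viability assay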
Description: SANGER: Inhibition of human TGBC24TKB cell growth in a cell viability assay.

CGTH-W-1 = type: functional, cell-based, Homo sapiens; conditions: Homo sapiens, CGTH-W-1;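 note: growth inhibition of human CGTH-W-1 cells measured by cell viability assay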
Description: SANGER: Inhibition of human CGTH-W-1 cell growth in a cell viability assay.

SNU-5 = type: functional, cell-based, Homo sapiens; conditions: Homo sapiens, SNU-5;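 note: cell viability readout used to measure growth inhibition in human NCI-SNU-5 cells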
Description: SANGER: Inhibition of human NCI-SNU-5 cell growth in a cell viability assay.

C2BBe1 = type: functional, cell-based, Homo sapiens; conditions: Homo sapiens, C2BBe1;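 note: growth inhibition of C2BBe1 cells, read out through a viability assay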
Description: SANGER: Inhibition of human C2BBe1 cell growth in a cell viability assay.

MSTO-211H = type: functional, cell-based, Homo sapiens; conditions: Homo sapiens, MSTO-211H
Description: SANGER: Inhibition of human MSTO-211H cell growth in a cell viability assay.

KNS-42 = type: functional, cell-based; conditions: Homo sapiens;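 note: growth inhibition of KNS-42 cells, read out with a cell viability assay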
Description: SANGER: Inhibition of human KNS-42 cell growth in a cell viability assay.

ES3 = type: functional, cell-based, Homo sapiens; conditions: Homo sapiens, ES3;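 note: growth inhibition of ES3 cells, read out with a cell viability assay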
Description: SANGER: Inhibition of human ES3 cell growth in a cell viability assay.

CW-2 = type: functional, cell-based, Homo sapiens; conditions: Homo sapiens, CW-2;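 note: growth inhibition of CW-2 cells, read out by a cell viability assay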
Description: SANGER: Inhibition of human CW-2 cell growth in a cell viability assay.

NCI-N87 = type: functional, cell-based; conditions: Homo sapiens;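 note: growth inhibition of human NCI-N87 cells, read out with a cell viability assay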
Description: SANGER: Inhibition of human NCI-N87 cell growth in a cell viability assay.

NCI-H720 = type: functional, cell-based, Homo sapiens; conditions: Homo sapiens, NCI-H720;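 note: growth inhibition of human NCI-H720 cells determined by a cell viability assay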
Description: SANGER: Inhibition of human NCI-H720 cell growth in a cell viability assay.

NB13 = type: functional, cell-based, Homo sapiens; conditions: Homo sapiens, NB13;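 note: cell viability readout measuring growth inhibition of human NB13 cells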
Description: SANGER: Inhibition of human NB13 cell growth in a cell viability assay.

NCI-H209 = type: functional, cell-based, Homo sapiens; conditions: Homo sapiens, NCI-H209;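 note: growth inhibition of human NCI-H209 cells, measured by a cell viability assay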
Description: SANGER: Inhibition of human NCI-H209 cell growth in a cell viability assay.

A253 cell line = type: functional, cell-based, Homo sapiens; conditions: Homo sapiens, A253;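 note: growth inhibition of A253 cells, read out with a cell viability assay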
Description: SANGER: Inhibition of human A253 cell growth in a cell viability assay.

For `Cc1ccc(C(=O)Nc2ccc(CN3CCN(C)CC3)c(C(F)(F)F)c2)cc1C#Cc1cnc2cccnn12` [PONATINIB], the IC50 (DMS-114) was over 512 nM, the IC50 (IST-MES1) was 268 nM and the IC50 (L-428) was over 512 nM. It also gave an IC50 (EW-3) of over 512 nM, an IC50 (NB6) of over 512 nM and an IC50 (KP-N-YS) of over 512 nM. The IC50 (MZ2-MEL) was over 512 nM, the IC50 (SK-NEP-1) was over 512 nM and the IC50 (HCC2218) was over 512 nM. For the same molecule, the IC50 (MC116) was over 512 nM, the IC50 (HCE-4) was over 512 nM and the IC50 (DOHH-2) was 48 nM. It also gave an IC50 (NCI-H1155) of over 512 nM, an IC50 (EW-1) of over 512 nM and an IC50 (BB30-HNC) of over 512 nM. The IC50 (NB69) was over 512 nM, the IC50 (SJSA-1) was over 512 nM and the IC50 (GCIY) was over 512 nM. It also gave an IC50 (HDLM-2) of over 512 nM, an IC50 (TE-10) of over 512 nM and an IC50 (A388) of over 512 nM. The IC50 (UACC-257) was over 512 nM, the IC50 (NCI-H1355) was over 512 nM and the IC50 (SK-N-FI) was over 512 nM. It also gave an IC50 (U-87 MG) of over 512 nM, an IC50 (K5) of over 512 nM and an IC50 (SW 954) of over 512 nM. It also gave an IC50 (DU-4475) of 495 nM, an IC50 (SW982) of 300 nM and an IC50 (JAR) of over 512 nM. For the same molecule, the IC50 (NCI-H82) was over 512 nM, the IC50 (NEC8) was over 512 nM and the IC50 (A498) was over 512 nM. The IC50 (BE-13) was 2.59 nM, the IC50 (SNU-C2B) was over 512 nM and the IC50 (BB65-RCC) was over 512 nM. It also gave an IC50 (MV4-11) of under 2 nM, an IC50 (TGBC24TKB) of over 512 nM and an IC50 (CGTH-W-1) of 1.69 nM. For the same molecule, the IC50 (SNU-5) was over 512 nM, the IC50 (C2BBe1) was over 512 nM and the IC50 (MSTO-211H) was over 512 nM. The IC50 (KNS-42) was over 512 nM, the IC50 (ES3) was over 512 nM and the IC50 (CW-2) was over 512 nM. For the same molecule, the IC50 (NCI-N87) was over 512 nM, the IC50 (NCI-H720) was over 512 nM and the IC50 (NB13) was over 512 nM. It also gave an IC50 (NCI-H209) of over 512 nM and an IC50 (A253 cell line) of over 512 nM.
